Data: ChEMBL document CHEMBL1136001, “Azapeptides structurally based upon inhibitory sites of cystatins as potent and selective inhibitors of cysteine proteases” (J Med Chem, 2002)
Active and inactive are the calls of the source. The calls are words filed in the database; no cut-off is given here. Non-standard residues stand in square brackets, D forms with d. Residues, ends and D or L forms follow the SMILES beside them. *: point of attachment. 1Nal = N[C@@H](Cc1cccc2ccccc12)C(=O)O; Cbz = O=C(OCc1ccccc1)*; NHBn = c1ccc(CN*)cc1; OBn = c1ccc(CO*)cc1; azaGly = NNC(=O)O

What was measured:
Cathepsin B = Cathepsin B (Homo sapiens, UniProt P07858); experiment: Inhibition of Human Cathepsin B
Papain = target: T1, Papain (Carica papaya, UniProt P00784); experiment: In vitro inhibition of papain.
T1 sequence (P00784 whole entry): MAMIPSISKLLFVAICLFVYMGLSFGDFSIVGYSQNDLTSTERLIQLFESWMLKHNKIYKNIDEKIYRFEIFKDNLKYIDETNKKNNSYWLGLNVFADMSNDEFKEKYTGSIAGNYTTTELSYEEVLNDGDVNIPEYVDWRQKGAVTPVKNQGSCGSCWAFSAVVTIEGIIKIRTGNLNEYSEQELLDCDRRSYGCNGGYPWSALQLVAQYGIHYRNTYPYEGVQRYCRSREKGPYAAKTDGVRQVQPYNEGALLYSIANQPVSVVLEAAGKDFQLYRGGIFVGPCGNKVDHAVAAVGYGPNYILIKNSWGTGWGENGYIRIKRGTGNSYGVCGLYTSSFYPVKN

Cathepsin K = target: T2, Cathepsin K (Homo sapiens, UniProt P43235); experiment: Inhibition of Human Cathepsin K
T2 sequence (P43235 whole entry): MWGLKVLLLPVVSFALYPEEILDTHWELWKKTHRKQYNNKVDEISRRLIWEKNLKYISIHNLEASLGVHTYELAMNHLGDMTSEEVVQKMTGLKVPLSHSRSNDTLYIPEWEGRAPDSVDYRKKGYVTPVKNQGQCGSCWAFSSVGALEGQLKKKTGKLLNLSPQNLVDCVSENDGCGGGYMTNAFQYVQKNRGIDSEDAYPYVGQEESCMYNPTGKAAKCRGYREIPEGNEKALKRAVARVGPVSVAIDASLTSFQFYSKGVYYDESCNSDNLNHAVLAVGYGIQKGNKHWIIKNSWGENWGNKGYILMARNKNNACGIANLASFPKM

Papain (Carica papaya) = target: T3, Papain (Carica papaya) (UniProt P00784); experiment: Evaluated for inhibitory activity against papain; No inhibition
T3 sequence (whole entry): T1 sequence (P00784 whole entry)

Row | Compound | Ki (Cathepsin B) | Ki (Papain) | Ki (Cathepsin K) | NI (Papain (Carica papaya)) | NA (Papain (Carica papaya))
1 | CC(C)C[C@H](NC(=O)[C@H](CCCNC(=N)N)NC(=O)OCc1ccccc1)C(=O)N[C@H](C(=O)NNC(=O)N[C@@H](C)C(=O)NCC(N)=O)C(C)C (HELM PEPTIDE1{[O=C(OCc1ccccc1)[*:2]].R.L.V.[O=C(NN[*:1])[*:2]].A.G.[am]}$$$$V2.0) | 7.29 nM | 0.78 nM | 6.76 nM | – | –
2 | CC[C@H](C)[C@H](NC(=O)NNC(=O)[C@@H](NC(=O)[C@H](CC(C)C)NC(=O)[C@H](C)NC(=O)OCc1ccccc1)[C@@H](C)CC)C(=O)N[C@H](C(=O)OC)C(C)C (Cbz-ALI[azaGly]IV-OMe) | 0.3 nM | 0.95 nM | 2.12 nM | – | –
3 | CNC(=O)[C@@H](NC(=O)NNC(=O)[C@H](Cc1ccccc1)NC(C)=O)C(C)C | – | 32 nM | – | – | –
4 | CC(=O)N[C@@H](Cc1ccccc1)C(=O)NNC(=O)N[C@H](C(=O)OCc1ccccc1)C(C)C | – | 21 nM | – | – | –
5 | CC(C)C[C@H](NC(=O)OCc1ccccc1)C(=O)N[C@@H](Cc1ccccc1)C(=O)NNC(=O)N[C@H](C(=O)OCc1ccccc1)C(C)C (Cbz-LF[azaGly]V-OBn) | – | – | – | inactive | –
6 | CC[C@H](C)[C@H](NC(=O)NNC(=O)[C@@H](NC(=O)[C@H](CC(C)C)NC(=O)[C@H](CCCN=C(N)N)NC(=O)OCc1ccccc1)C(C)C)C(=O)N[C@H](C(=O)OC)C(C)C (Cbz-RLV[azaGly]IV-OMe) | 0.088 nM | 0.77 nM | 21 nM | – | –
7 | CC(=O)N[C@@H](Cc1ccccc1)C(=O)NNC(=O)N[C@H](C(=O)O)C(C)C | – | – | – | – | inactive
8 | CC(C)C[C@H](N)C(=O)N[C@H](C(=O)NNC(=O)N[C@H](C(=O)OCc1ccccc1)C(C)C)C(C)C (HELM PEPTIDE1{L.V.[O=C(NN[*:1])[*:2]].V.[c1ccc(CO[*:1])cc1]}$$$$V2.0) | – | – | – | inactive | –
9 | CC(C)C[C@H](NC(=O)OCc1ccccc1)C(=O)N[C@H](C(=O)NNC(=O)N[C@H](C(=O)OCc1ccccc1)C(C)C)C(C)C (Cbz-LV[azaGly]V-OBn) | 40 nM | 6.7 nM | 34 nM | – | –
10 | CCOC(=O)[C@@H](NC(=O)NNC(=O)[C@H](Cc1ccccc1)NC(C)=O)C(C)C | – | 20 nM | – | – | –
11 | COC(=O)[C@@H](NC(=O)NNC(=O)[C@H](Cc1ccccc1)NC(C)=O)C(C)C | – | 61 nM | – | – | –
12 | CC(C)C[C@H](NC(=O)[C@H](CCCNC(=N)N)NC(=O)OCc1ccccc1)C(=O)N[C@H](C(=O)NNC(=O)N[C@H](C(=O)N[C@@H](C)C(N)=O)C(C)C)C(C)C (HELM PEPTIDE1{[O=C(OCc1ccccc1)[*:2]].R.L.V.[O=C(NN[*:1])[*:2]].V.A.[am]}$$$$V2.0) | 0.12 nM | 0.56 nM | 2.13 nM | – | –
13 | CCCCNC(=O)[C@@H](NC(=O)NNC(=O)[C@H](Cc1ccccc1)NC(C)=O)C(C)C | – | 28 nM | – | – | –
14 | CC(C)C[C@H](NC(=O)[C@H](CCCN=C(N)N)NC(=O)OCc1ccccc1)C(=O)N[C@@H](Cc1ccccc1)C(=O)NNC(=O)N[C@H](C(=O)OCc1ccccc1)C(C)C (Cbz-RLF[azaGly]V-OBn) | – | – | – | inactive | –
15 | CC(C)C[C@H](NC(=O)[C@H](CCCNC(=N)N)NC(=O)OCc1ccccc1)C(=O)N[C@H](C(=O)NNC(=O)N[C@@H](Cc1c[nH]c2ccccc12)C(=O)N[C@H](C(=O)N[C@@H](C)C(N)=O)C(C)C)C(C)C (HELM PEPTIDE1{[O=C(OCc1ccccc1)[*:2]].R.L.V.[O=C(NN[*:1])[*:2]].W.V.A.[am]}$$$$V2.0) | 43 nM | 100 nM | 100 nM | – | –
16 | CC[C@H](C)[C@H](NC(=O)NNC(=O)[C@H](Cc1cnc[nH]1)NC(=O)[C@H](CC(C)C)NC(=O)[C@H](C)NC(=O)OCc1ccccc1)C(=O)N[C@H](C(=O)OC)C(C)C (Cbz-ALH[azaGly]IV-OMe) | 0.03 nM | 0.58 nM | 0.86 nM | – | –
17 | CC[C@H](C)[C@H](NC(=O)NNC(=O)[C@H](Cc1cccc2ccccc12)NC(=O)[C@H](CC(C)C)NC(=O)[C@H](C)NC(=O)OCc1ccccc1)C(=O)N[C@H](C(=O)OC)C(C)C (Cbz-AL[1Nal][azaGly]IV-OMe) | 1.58 nM | 0.1 nM | 5.75 nM | – | –
18 | CC(C)C(NC(=O)NNC(=O)OC(C)(C)C)C(=O)OCc1ccccc1 (stereo not given) | – | – | – | inactive | –
19 | CC[C@H](C)[C@H](NC(=O)NNC(=O)[C@@H](NC(=O)[C@H](CC(C)C)NC(=O)[C@H](CCCN=C(N)N)NC(=O)OCc1ccccc1)C(C)C)C(=O)N[C@H](C(=O)N[C@@H](Cc1c[nH]c2ccccc12)C(N)=O)C(C)C (HELM PEPTIDE1{[O=C(OCc1ccccc1)[*:2]].R.L.V.[O=C(NN[*:1])[*:2]].I.V.W.[am]}$$$$V2.0) | 13 nM | 17 nM | 72 nM | – | –
20 | CCCCOC(=O)[C@@H](NC(=O)NNC(=O)[C@H](Cc1ccccc1)NC(C)=O)C(C)C | – | 59 nM | – | – | –
21 | CC[C@H](C)[C@H](NC(=O)NNC(=O)[C@H](Cc1ccccc1)NC(=O)[C@H](CC(C)C)NC(=O)[C@H](C)NC(=O)OCc1ccccc1)C(=O)N[C@H](C(=O)OC)C(C)C (Cbz-ALF[azaGly]IV-OMe) | 0.13 nM | 0.12 nM | 0.18 nM | – | –
22 | CCOC(=O)NNC(=O)[C@@H](NC(=O)[C@H](CC(C)C)NC(=O)OC(C)(C)C)C(C)C | – | 24 nM | 61 nM | – | –
23 | CC[C@H](C)[C@H](NC(=O)NNC(=O)[C@@H](NC(=O)[C@H](CC(C)C)NC(=O)[C@H](C)NC(=O)OCc1ccccc1)[C@@H](C)CC)C(=O)N[C@H](C(=O)NCc1ccccc1)C(C)C (Cbz-ALI[azaGly]IV-NHBn) | 0.25 nM | 1.35 nM | 2.45 nM | – | –
24 | CC(=O)N[C@@H](Cc1ccccc1)C(=O)NNC(=O)N[C@H](C(=O)NCc1ccccc1)C(C)C | – | 30 nM | – | – | –
25 | CC[C@H](C)[C@H](NC(=O)NNC(=O)[C@H](Cc1ccc(OC)cc1)NC(=O)[C@H](CC(C)C)NC(=O)[C@H](C)NC(=O)OCc1ccccc1)C(=O)N[C@H](C(=O)OC)C(C)C (Cbz-ALY(Me)[azaGly]IV-OMe) | 1.41 nM | 0.28 nM | 8.42 nM | – | –
